Our source for the EC50 values is patent US7906655B2, “Hepatitis C virus inhibitors” (Bristol-Myers Squibb Company, priority 2008, dated 2011).

For this experiment, the system named is HCV 1b genotype. The experiment in a line: HCV Replicon assay (HCV-neo replicon cells, wild-type). In kind it is cell-based. The conditions noted are these: HCV 1b genotype replicon. The essentials: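 Inhibition was measured in HCV-neo (genotype 1b) replicon cells. Some assay versions used luciferase reporters.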
For orientation: In antiviral work, replicon cells carry a viral genome segment that copies itself.

The mark [1] stands for this setting: Hepatitis C virus, class symbols.

As usually defined, the EC50 is the concentration at which the effect is half-maximal. For `CO[C@@H]1C[C@@H](c2nc3cc(CCc4ccc5nc([C@@H]6C[C@@H](OC)CN6C(=O)OCc6ccccc6)[nH]c5c4)ccc3[nH]2)N(C(=O)OCc2ccccc2)C1` [Example F4, benzyl (2S,4R)-2-(5-(2-(2-((2S,4R)-1-((benzyloxy)carbonyl)-4-methoxy-2-pyrrolidinyl)-1H-benzimidazol-6-yl)ethyl)-1H-benzimidazol-2-yl)-4-methoxy-1-pyrrolidinecarboxylate], the half-maximal effective concentration (EC50) under setting [1] is less than 4.57 nM.

Take `COC(=O)N[C@@H](C(=O)N(C)[C@@H](C)c1nc2cc(C#Cc3ccc4[nH]c([C@H](C)N(C)C(=O)[C@H](NC(=O)OC)c5ccccc5)nc4c3)ccc2[nH]1)c1ccccc1` [Example M36, dimethyl (1,2-ethynediylbis(1H-benzimidazole-5,2-diyl(1S)-1,1-ethanediyl(methylimino)((1R)-2-oxo-1-phenyl-2,1-ethanediyl)))biscarbamate]: the half-maximal effective concentration (EC50) (numeric values) is 0.005 nM.

With `COC(=O)N[C@@H](C)C(=O)N1[C@@H]2C[C@@H]2C[C@H]1c1nc2cc(-c3ccc(Oc4cccc5[nH]c([C@@H]6C[C@H]7C[C@H]7N6C(=O)[C@H](C)NC(=O)OC)nc45)cc3)ccc2[nH]1` [Example V8, methyl ((1S)-2-((1R,3S,5R)-3-(5-(4-((2-((1R,3S,5R)-2-(N-(methoxycarbonyl)-L-alanyl)-2-azabicyclo[3.1.0]hex-3-yl)-1H-benzimidazol-4-yl)oxy)phenyl)-1H-benzimidazol-2-yl)-2-azabicyclo[3.1.0]hex-2-yl)-1-methyl-2-oxoethyl) carbamate], under “class symbols”, the EC50 was less than 4.57 nM.

With `C[C@@H](C(=O)N1CCC[C@H]1c1nc2cc(C#Cc3ccc4[nH]c([C@@H]5CCCN5C(=O)[C@H](C)c5ccccc5)nc4c3)ccc2[nH]1)c1ccccc1` [Example M1, 5,5′-(1,2-ethynediyl)bis(2-((2S)-1-((2R)-2-phenylpropanoyl)-2-pyrrolidinyl)-1H-benzimidazole)], under setting [1], the EC50 was less than 4.57 nM.

With `CN(C)C(C(=O)N1CCC[C@H]1c1nc2ccc(-c3ccc4[nH]c([C@@H]5CCCN5C(=O)[C@@H](c5ccccc5)N(C)C)nc4c3)cc2[nH]1)c1ccccc1` (stereo partly drawn) [Example F1, (1R,1′R)-2,2′-(1H,1′H-5,5′-bibenzimidazole-2,2′-diyldi(2S)-2,1-pyrrolidinediyl)bis(N,N-dimethyl-2-oxo-1-phenylethanamine)], under setting [1], the half-maximal effective concentration (EC50) was less than 4.57 nM.

`CC(=O)N1CCC[C@H]1c1nc2ccc(C#Cc3ccc4[nH]c([C@@H]5CCCN5C(=O)C5CC5)nc4c3)cc2[nH]1` [Example M54.30, 5-((2-((2S)-1-acetyl-2-pyrrolidinyl)-1H-benzimidazol-6-yl)ethynyl)-2-((2S)-1-(cyclopropyl-carbonyl)-2-pyrrolidinyl)-1H-benzimidazole]: the EC50 under setting [1] was in the range of 100 to 999 nM.

For `CC(=O)N1CCC[C@H]1c1nc2ccc(C#Cc3ccc4[nH]c([C@@H]5CCCN5C(=O)c5cccs5)nc4c3)cc2[nH]1` [Example M54.24, 5-((2-((2S)-1-acetyl-2-pyrrolidinyl)-1H-benzimidazol-6-yl)ethynyl)-2-((2S)-1-(2-thienylcarbonyl)-2-pyrrolidinyl)-1H-benzimidazole], the concentration giving a half-maximal response (EC50) under setting [1] was 4.57 to 99 nM.

Take `C[C@@H](NC(=O)OCc1ccccc1)c1nc2cc(CCc3ccc4nc([C@@H](C)NC(=O)OCc5ccccc5)[nH]c4c3)ccc2[nH]1` [OL6, benzyl ((1R)-1-(5-(2-(2-(1R)-1-(((benzyloxy)carbonyl)amino)ethyl-1H-benzimidazol-6-yl)ethyl)-1H-benzimidazol-2-yl)ethyl)carbamate]: under “class symbols”, the concentration giving a half-maximal response (EC50) lay within 100 to 999 nM.

On to `COC(=O)N[C@@H](C(=O)N[C@@H](C)c1nc2cc(C#Cc3ccc4[nH]c([C@H](C)NC(=O)[C@H](NC(=O)OC)c5ccccc5)nc4c3)ccc2[nH]1)c1ccccc1` [Example M31, dimethyl (1,2-ethynediylbis(1H-benzimidazole-5,2-diyl(1S)-1,1-ethanediylimino((1R)-2-oxo-1-phenyl-2,1-ethanediyl)))biscarbamate], for which the EC50 (Hepatitis C virus, numeric values) amounted to 0.033 nM.

On to `CC(=O)N[C@@H](C(=O)N[C@@H](C)c1nc2cc(C#Cc3ccc4nc([C@H](C)NC(=O)[C@H](NC(C)=O)c5ccccc5)[nH]c4c3)ccc2[nH]1)c1ccccc1` [Example M30, (2R)-2-acetamido-N-((1S)-1-(5-((2-((1S)-1-(((2R)-2-acetamido-2-phenylacetyl)amino)ethyl)-1H-benzimidazol-6-yl)ethynyl)-1H-benzimidazol-2-yl)ethyl)-2-phenylacetamide], for which the EC50 under setting [1] was less than 4.57 nM.

Take `COc1cccc2c(C(=O)N3CCC[C@H]3c3nc4cc(C#Cc5ccc6nc([C@@H]7CCCN7C(=O)c7nc(Cl)cc8c(OC)cccc78)[nH]c6c5)ccc4[nH]3)nc(Cl)cc12` [Example M18, 3-chloro-1-(((2S)-2-(5-((2-((2S)-1-((3-chloro-5-methoxy-1-isoquinolinyl)carbonyl)-2-pyrrolidinyl)-1H-benzimidazol-6-yl)ethynyl)-1H-benzimidazol-2-yl)-1-pyrrolidinyl)carbonyl)-5-methoxyisoquinoline]: under setting [1], the EC50 lay within 100 to 999 nM.
